Calls of active or inactive are those of the source. The calls are words filed in the database; no cut-off is given here.
Experiments:
[1] = AUC(0 to t) in OVX-induced C57/BL6 mouse model at 5 mg/kg, po; format: ADME, organism-based; parameters: dose 5 mg/kg, route po; details: female, in vivo
BMDM [2] = experiment: Inhibition of RANKL-induced TRAP in mRNA expression in C57/BL6 mouse bone marrow macrophage cells upto 5 uM measured after 3 days by qRT-PCR analysis; format: functional, cell-based; details: time 3.0 day
[3] = Anti-osteoporosis activity C57/BL6 mouse bone marrow macrophage cells assessed as inhibition of RANKL-induced osteoclastogenesis at 1 uM measured after 5 to 6 days in presence of M-CSF and RNKL by TRAP staining microscopic analysis; format: functional, BMDM; parameters: scale not given: the % may be the effect or the level left; details: time 5-6 day
[4] = Half life in OVX-induced C57/BL6 mouse model at 5 mg/kg, po; format: ADME, organism-based; details: female, in vivo
BMDM [5] = experiment: Anti-osteoporosis activity C57/BL6 mouse bone marrow macrophage cells assessed as inhibition of RANKL-induced osteoclastogenesis and measured after 5 to 6 days in presence of M-CSF by TRAP staining based assay; format: functional, cell-based; details: dose 0.1-5 µM, time 5-6 day, DDE = dose-dependent effect
BMDM [6] = experiment: Anti-osteoporosis activity C57/BL6 mouse bone marrow macrophage cells assessed as inhibition of RANKL-induced F-actin levels upto 5 uM measured after 5 to 6 days in presence of M-CSF by DAPI staining analysis; format: functional, cell-based; details: time 5-6 day
[7] = Half life in OVX-induced C57/BL6 mouse model at 3 mg/kg, iv; format: ADME, organism-based; details: female, in vivo
BMDM [8] = experiment: Inhibition of RANKL-induced c-fos in mRNA expression in C57/BL6 mouse bone marrow macrophage cells upto 5 uM measured after 3 days by qRT-PCR analysis; format: functional, cell-based; details: time 3.0 day
Mus musculus [9] = experiment: Anti-osteoporosis activity in ligature-induced periodontal BALB/c mouse model assessed as increase in alveolar bone mass at 20 mg/kg, ip measured for 4 weeks by microCT imaging analysis; format: functional
[10] = Anti-osteoporosis activity C57/BL6 mouse bone marrow macrophage cells assessed as inhibition of RANKL-induced osteoclastogenesis at 0.1 uM measured after 5 to 6 days in presence of M-CSF and RNKL by TRAP staining microscopic analysis; format: functional, BMDM; parameters: scale not given: the % may be the effect or the level left; details: time 5-6 day
BMDM [11] = experiment: Cytotoxicity against C57/BL6 mouse bone marrow macrophage cells at 5 uM measured after 3 days in presence of M-CSF by CCK-8 assay; format: toxicity, cell-based; details: 72 h, time 3 day
[12] = Oral bioavailability in OVX-induced C57/BL6 mouse model; format: ADME, organism-based; details: female, in vivo
[13] = Cmax in OVX-induced C57/BL6 mouse model at 5 mg/kg, po; format: ADME, organism-based; parameters: dose 5 mg/kg, route po; details: female, in vivo
[14] = target: T1, Tumor necrosis factor ligand superfamily member 11 (Homo sapiens, UniProt O14788); experiment: Binding affinity to human RANKL assessed as dissociation constant by surface plasmon resonance method
T1 sequence (O14788 whole entry): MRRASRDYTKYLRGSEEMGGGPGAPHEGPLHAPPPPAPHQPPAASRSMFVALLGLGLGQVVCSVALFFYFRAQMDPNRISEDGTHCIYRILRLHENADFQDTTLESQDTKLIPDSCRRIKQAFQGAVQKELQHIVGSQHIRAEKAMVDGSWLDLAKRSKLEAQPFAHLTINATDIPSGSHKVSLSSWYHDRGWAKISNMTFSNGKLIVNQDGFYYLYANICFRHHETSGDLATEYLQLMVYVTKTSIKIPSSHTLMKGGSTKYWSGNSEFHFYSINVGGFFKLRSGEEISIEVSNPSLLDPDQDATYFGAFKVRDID

[15] = Anti-osteoporosis activity C57/BL6 mouse bone marrow macrophage cells assessed as inhibition of RANKL-induced osteoclastogenesis measured after 5 to 6 days in presence of M-CSF by DAPI staining analysis; format: functional, cell-based; details: bmdm
[16] = Clearance in OVX-induced C57/BL6 mouse model at 3 mg/kg, iv; format: ADME, organism-based; details: female, in vivo
Mus musculus [17] = experiment: Anti-osteoporosis activity in ligature-induced periodontal BALB/c mouse model assessed as decrease in bone loss at 20 mg/kg, ip measured for 4 weeks by microCT imaging analysis; format: functional, organism-based
Mus musculus [18] = experiment: Anti-osteoporosis activity in ligature-induced periodontal BALB/c mouse model assessed as increase in bone volume at 20 mg/kg, ip measured for 4 weeks by microCT imaging analysis; format: functional
Mus musculus [19] = experiment: Anti-osteoporosis activity in OVX-induced C57/BL6 mouse model assessed as increase in bone mineral density by measuring recovery at 60 mg/kg, po once per day for 28 days by microCT imaging analysis; format: functional; details: time 28 day
BMDM [20] = experiment: Inhibition of RANKL-induced NFATC1 protein expression in C57/BL6 mouse bone marrow macrophage cells upto 10 uM measured for 3 days in presence of M-CSF and RANKL by Western blot analysis; format: functional, cell-based; details: time 3.0 day, DDE = dose-dependent effect
BMDM [21] = experiment: Inhibition of RANKL-induced Cathepsin K in mRNA expression in C57/BL6 mouse bone marrow macrophage cells upto 5 uM measured after 3 days by qRT-PCR analysis; format: functional, cell-based; details: time 3.0 day
BMDM [22] = experiment: Anti-osteoporosis activity C57/BL6 mouse bone marrow macrophage cells assessed as inhibition of RANKL-induced F-actin size upto 5 uM measured after 5 to 6 days in presence of M-CSF by DAPI staining analysis; format: functional, cell-based; details: time 5-6 day
BMDM [23] = experiment: Inhibition of RANKL-induced c-FOS protein expression in C57/BL6 mouse bone marrow macrophage cells upto 10 uM measured for 3 days in presence of M-CSF and RANKL by Western blot analysis; format: functional, cell-based; details: time 3.0 day, DDE = dose-dependent effect
[24] = AUC(0 to t) in OVX-induced C57/BL6 mouse model at 3 mg/kg, iv; format: ADME, organism-based; parameters: dose 3 mg/kg, route iv; details: female, in vivo
BMDM [25] = experiment: Inhibition of RANKL-induced NFATc1 in mRNA expression in C57/BL6 mouse bone marrow macrophage cells upto 5 uM measured after 3 days by qRT-PCR analysis; format: functional, cell-based; details: time 3.0 day
Mus musculus [26] = experiment: Anti-osteoporosis activity in ligature-induced periodontal BALB/c mouse model assessed as increase in vertical bone at 20 mg/kg, ip measured for 4 weeks by microCT imaging analysis; format: functional
BMDM [27] = experiment: Cytotoxicity against C57/BL6 mouse bone marrow macrophage cells assessed as reduction in cell viability at 10 uM incubated for 3 days by CCK8 assay; format: toxicity, cell-based; details: 72 h, time 3 day

- AUC(0-t) [1]: 223 ng·h/mL
- half-life [4]: 2 h
- half-life [7]: 5.1 h
- bioavailability [12]: 4.9%
- Cmax [13]: 48.1 ng/mL
- clearance [16]: 18.6 mL/min/kg
- AUC(0-t) [24]: 2710 ng·h/mL
SMILES: Cc1cccc(C)c1NC(=O)c1cc2c([nH]c3ccccc32)c(CCc2ccccc2)n1
- inhibition (BMDM [2]): Active
- Activity [3]: 89.3%
- Activity (BMDM [5]): Dde
- Activity (BMDM [6]): Active
- inhibition (BMDM [8]): Active
- Activity (Mus musculus [9]): 60.7%
- Activity [10]: 45.9%
- Activity (BMDM [11]): Non-Toxic
- Kd [14]: 5030 nM
- IC50 [15]: 520 nM
- Activity (Mus musculus [17]): Active
- Activity (Mus musculus [18]): 51.9%
- Activity (Mus musculus [19]): 23.4%
- inhibition (BMDM [20]): Dde
- inhibition (BMDM [21]): Active
- Activity (BMDM [22]): Active
- inhibition (BMDM [23]): Dde
- inhibition (BMDM [25]): Active
- Activity (Mus musculus [26]): 67%
- Cell viability (BMDM [27]): > 100%

Source: ChEMBL document CHEMBL5120967, “Development of an Orally Active Small-Molecule Inhibitor of Receptor Activator of Nuclear Factor-κB Ligand” (J Med Chem, 2022)
